Laboratory results: patent publication US20050192273A1, “Therapy for psychoses combining an atypical antipsychotic and an mglu2/3 receptor agonist” (priority 2002, published 2005)
“Also recorded” adds a separate entry of the source.

How the values were obtained:
human mGlu1 = molecular target: T1, human mGlu1 (Homo sapiens, UniProt Q13255); settings: increase PI hydrolysis, cited from earlier work
T1 construct: expressed in transfected cells; host or cells: RGT cells (cells expressing the rat glutamate transporter)

human mGlu5 = molecular target: T2, human mGlu5 (Homo sapiens, UniProt P41594); settings: increase PI hydrolysis, cited from earlier work
T2 construct: expressed in transfected cells; host or cells: RGT cells (cells expressing the rat glutamate transporter)

human mGlu2 = molecular target: T3, human mGlu2 (Homo sapiens, UniProt Q14416); settings: decrease forskolin-stimulated cAMP, mean ± S.E.M., read-out: EC50 (nM) (Agonist Activity); cited from earlier work
T3 construct: expressed in transfected cells; host or cells: RGT cells (cells expressing the rat glutamate transporter)

human mGlu7 = molecular target: T4, human mGlu7 (Homo sapiens, UniProt Q14831); settings: decrease forskolin-stimulated cAMP, cited from earlier work
T4 construct: expressed in transfected cells; host or cells: RGT cells (cells expressing the rat glutamate transporter)

human mGlu4 = molecular target: T5, human mGlu4 (Homo sapiens, UniProt Q14833); settings: decrease forskolin-stimulated cAMP, cited from earlier work
T5 construct: expressed in transfected cells; host or cells: RGT cells (cells expressing the rat glutamate transporter)

[1] = system: PCP-induced motor activation (ambulations); experiment: PCP-induced motor activation (ambulations) in rats; type: in vivo, rat; settings: PCP 5 mg/kg s.c., 60 min
Protocol: In the present experiments, studies were performed in accordance with Eli Lilly and Company animal care and use policies. Male Sprague-Dawley rats (250-300 g) were group-housed (maximum of seven rats per cage) under standard laboratory conditions with ad libitum access to food and water (12 h light/dark cycle), for at least 1 day before use.
Activity Assessment compounds were tested against PCP-induced motor activation (ambulations) in rats. Behavioral parameters were monitored in transparent, shoe-box cages that measured 45×25×20 cm, with a 1 cm depth of wood chips on the cage floor and a metal grill on top of the cage. Rectangular photocell monitors (Hamilton Kinder, Poway, Calif.) with a bank of […] (8×4 formation) surrounded each test cage. A lower rack of photocell beams was positioned 5 cm above the cage floor to enable detection of the location of the animals body, while an upper bank positioned 10 cm above the first tabulated rearing activity. Ambulations (locomotor activity) and rearing were recorded by the computer and stored for each test session as discussed in Male Sprague-Dawley rats were generally food-fasted 12-18 hours prior to the experiment. In some experiments, rats were allowed food and water ad libitum prior to the experiment. On the test day animals were placed in the test cage for a 30 min habituation period before to testing to allow for acclimation to the test cage environment. Following this habituation period, animals were administered challenges of phencyclidine (PCP) (5 mg/kg s.c.) or 0.9% NaCl vehicle (1 ml/kg) and behavioral assessment began immediately following their administration. Animals were monitored over a 60 min period in all instances. Test drugs or vehicle were administered at various pretreatment times prior to the PCP challenge.
Statistical analysis. Statistical Analysis were carried out using the GraphPad PRISM statistical/graphing package (GraphPad, SanDiego, Calif.). Data were analyzed using a one-way analysis of variance (ANOVA) and post-hoc comparisons were performed using Dunnett's multiple comparisons test.
The rats were tested 30 minutes post-injection of the test compound or vehicle. Behaviors were monitored over a 60 minute time period following S.C. injection of PCP or vehicle. Data (mean±S.E.) are presented as the total number of behaviors expressed during the timer period.

human mGlu3 = molecular target: T6, human mGlu3 (Homo sapiens, UniProt Q14832); settings: decrease forskolin-stimulated cAMP, mean ± S.E.M., read-out: EC50 (nM) (Agonist Activity); cited from earlier work
T6 construct: expressed in transfected cells; host or cells: RGT cells (cells expressing the rat glutamate transporter)

human mGlu8 = molecular target: T7, human mGlu8 (Homo sapiens, UniProt O00222); settings: decrease forskolin-stimulated cAMP, mean ± S.E.M., read-out: EC50 (nM) (Agonist Activity); cited from earlier work
T7 construct: expressed in transfected cells; host or cells: RGT cells (cells expressing the rat glutamate transporter)

[2] = read-out: EC50 (nM) (Agonist Activity)
[3] = read-out: IC50 (nM) (Antagonist Activity)

T2 sequence (P41594 21-1180 isoform P41594-2 limits assumed): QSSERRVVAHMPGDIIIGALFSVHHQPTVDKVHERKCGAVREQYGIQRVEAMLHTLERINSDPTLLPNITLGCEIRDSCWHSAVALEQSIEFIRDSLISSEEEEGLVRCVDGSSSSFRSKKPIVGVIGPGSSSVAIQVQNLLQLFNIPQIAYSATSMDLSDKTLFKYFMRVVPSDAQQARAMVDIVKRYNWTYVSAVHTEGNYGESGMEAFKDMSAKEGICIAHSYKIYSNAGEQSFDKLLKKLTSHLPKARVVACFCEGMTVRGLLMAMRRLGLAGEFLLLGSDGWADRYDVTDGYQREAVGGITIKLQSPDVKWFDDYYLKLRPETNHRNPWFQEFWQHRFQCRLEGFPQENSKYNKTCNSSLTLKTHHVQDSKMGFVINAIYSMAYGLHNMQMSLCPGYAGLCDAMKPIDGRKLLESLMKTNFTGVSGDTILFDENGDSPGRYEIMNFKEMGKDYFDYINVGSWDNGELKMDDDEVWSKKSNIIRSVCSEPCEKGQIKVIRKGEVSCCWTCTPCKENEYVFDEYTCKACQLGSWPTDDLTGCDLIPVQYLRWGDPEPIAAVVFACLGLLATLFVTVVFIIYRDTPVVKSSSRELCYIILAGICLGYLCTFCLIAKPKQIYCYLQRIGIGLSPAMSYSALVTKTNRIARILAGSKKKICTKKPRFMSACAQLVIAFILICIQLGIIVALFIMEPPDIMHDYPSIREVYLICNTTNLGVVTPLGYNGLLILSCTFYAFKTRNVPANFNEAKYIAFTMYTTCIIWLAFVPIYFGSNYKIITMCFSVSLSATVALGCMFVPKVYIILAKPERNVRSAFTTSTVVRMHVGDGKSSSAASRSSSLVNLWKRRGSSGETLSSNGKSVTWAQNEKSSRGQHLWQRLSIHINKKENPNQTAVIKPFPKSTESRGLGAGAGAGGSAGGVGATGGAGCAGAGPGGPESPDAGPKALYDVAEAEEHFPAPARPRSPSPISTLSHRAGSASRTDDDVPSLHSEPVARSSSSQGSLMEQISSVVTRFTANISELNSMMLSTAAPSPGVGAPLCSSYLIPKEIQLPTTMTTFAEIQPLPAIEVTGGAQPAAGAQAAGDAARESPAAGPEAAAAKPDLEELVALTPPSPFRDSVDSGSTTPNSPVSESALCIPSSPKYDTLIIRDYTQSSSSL
T5 sequence (Q14833 33-912): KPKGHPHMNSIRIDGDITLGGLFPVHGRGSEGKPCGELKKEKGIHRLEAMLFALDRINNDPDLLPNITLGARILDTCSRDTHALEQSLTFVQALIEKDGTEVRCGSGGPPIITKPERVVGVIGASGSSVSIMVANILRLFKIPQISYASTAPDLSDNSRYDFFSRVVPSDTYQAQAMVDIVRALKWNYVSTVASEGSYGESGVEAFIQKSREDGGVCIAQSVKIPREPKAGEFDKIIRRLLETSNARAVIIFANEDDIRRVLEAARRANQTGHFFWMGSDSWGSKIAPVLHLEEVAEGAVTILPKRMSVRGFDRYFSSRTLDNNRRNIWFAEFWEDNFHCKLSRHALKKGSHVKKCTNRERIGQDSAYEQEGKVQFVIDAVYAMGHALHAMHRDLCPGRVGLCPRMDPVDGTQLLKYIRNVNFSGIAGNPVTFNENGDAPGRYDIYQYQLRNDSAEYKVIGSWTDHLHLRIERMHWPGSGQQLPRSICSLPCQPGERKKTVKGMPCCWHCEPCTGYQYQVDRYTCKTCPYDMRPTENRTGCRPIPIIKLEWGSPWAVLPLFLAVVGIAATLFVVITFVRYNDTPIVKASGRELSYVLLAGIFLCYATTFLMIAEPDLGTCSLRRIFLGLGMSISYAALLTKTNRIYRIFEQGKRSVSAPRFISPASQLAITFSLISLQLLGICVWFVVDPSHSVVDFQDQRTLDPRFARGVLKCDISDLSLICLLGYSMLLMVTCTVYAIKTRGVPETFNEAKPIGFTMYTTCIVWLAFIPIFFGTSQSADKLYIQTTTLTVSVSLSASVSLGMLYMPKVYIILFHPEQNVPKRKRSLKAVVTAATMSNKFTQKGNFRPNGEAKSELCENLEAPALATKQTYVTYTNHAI
T1 sequence (Q13255 19-1194): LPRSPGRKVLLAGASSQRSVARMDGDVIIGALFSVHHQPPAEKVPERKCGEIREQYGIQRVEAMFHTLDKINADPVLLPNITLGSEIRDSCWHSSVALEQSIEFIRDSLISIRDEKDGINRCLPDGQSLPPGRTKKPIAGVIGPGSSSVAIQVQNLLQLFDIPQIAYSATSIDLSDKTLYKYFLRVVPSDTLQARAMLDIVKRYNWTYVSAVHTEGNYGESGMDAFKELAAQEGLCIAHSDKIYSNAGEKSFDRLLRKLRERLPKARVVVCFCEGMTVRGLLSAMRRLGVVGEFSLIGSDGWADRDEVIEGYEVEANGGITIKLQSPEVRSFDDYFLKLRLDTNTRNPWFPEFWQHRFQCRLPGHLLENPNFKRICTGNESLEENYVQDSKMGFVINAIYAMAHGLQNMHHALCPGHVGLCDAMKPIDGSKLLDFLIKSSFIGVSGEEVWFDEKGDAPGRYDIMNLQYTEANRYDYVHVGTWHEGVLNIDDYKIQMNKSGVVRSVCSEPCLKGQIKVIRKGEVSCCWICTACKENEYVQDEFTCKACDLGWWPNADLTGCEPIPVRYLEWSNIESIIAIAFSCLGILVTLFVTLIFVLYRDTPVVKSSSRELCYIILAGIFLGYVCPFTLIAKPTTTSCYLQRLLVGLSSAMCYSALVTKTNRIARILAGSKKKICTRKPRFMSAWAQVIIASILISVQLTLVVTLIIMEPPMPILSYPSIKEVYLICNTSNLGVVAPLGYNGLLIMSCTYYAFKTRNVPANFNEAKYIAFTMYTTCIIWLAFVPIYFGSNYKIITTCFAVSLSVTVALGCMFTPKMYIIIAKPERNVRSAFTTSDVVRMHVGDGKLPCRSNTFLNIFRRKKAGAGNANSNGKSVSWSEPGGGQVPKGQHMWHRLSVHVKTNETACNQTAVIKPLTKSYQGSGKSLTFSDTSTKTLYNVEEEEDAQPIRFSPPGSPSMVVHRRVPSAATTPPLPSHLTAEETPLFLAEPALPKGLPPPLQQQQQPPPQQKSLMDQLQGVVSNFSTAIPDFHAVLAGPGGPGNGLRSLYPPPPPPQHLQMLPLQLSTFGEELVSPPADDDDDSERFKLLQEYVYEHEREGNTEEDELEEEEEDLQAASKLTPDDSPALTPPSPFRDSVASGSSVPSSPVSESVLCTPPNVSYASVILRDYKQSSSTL
T4 sequence (Q14831 35-915): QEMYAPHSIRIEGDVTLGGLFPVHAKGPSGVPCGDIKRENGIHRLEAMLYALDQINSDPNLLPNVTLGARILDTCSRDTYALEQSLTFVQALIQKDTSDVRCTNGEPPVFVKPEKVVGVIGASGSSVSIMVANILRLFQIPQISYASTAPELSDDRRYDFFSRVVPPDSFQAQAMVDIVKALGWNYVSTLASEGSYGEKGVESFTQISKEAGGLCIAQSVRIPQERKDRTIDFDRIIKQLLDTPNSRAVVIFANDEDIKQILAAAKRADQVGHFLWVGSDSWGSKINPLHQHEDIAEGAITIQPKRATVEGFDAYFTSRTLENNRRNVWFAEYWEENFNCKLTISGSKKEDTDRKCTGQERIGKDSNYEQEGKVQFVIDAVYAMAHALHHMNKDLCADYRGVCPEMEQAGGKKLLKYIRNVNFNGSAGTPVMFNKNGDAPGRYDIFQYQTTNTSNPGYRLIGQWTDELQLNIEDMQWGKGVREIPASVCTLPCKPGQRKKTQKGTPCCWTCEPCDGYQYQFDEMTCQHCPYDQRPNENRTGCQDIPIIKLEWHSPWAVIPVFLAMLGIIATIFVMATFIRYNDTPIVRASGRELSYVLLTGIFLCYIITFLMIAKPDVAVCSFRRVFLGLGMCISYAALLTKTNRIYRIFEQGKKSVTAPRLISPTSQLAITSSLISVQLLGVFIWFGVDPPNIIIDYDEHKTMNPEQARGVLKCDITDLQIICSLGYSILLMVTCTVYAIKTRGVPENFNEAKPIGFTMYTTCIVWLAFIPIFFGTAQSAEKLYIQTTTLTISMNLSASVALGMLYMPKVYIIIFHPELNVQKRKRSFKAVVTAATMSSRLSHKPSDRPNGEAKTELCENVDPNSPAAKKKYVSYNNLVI
T3 sequence (Q14416 19-872): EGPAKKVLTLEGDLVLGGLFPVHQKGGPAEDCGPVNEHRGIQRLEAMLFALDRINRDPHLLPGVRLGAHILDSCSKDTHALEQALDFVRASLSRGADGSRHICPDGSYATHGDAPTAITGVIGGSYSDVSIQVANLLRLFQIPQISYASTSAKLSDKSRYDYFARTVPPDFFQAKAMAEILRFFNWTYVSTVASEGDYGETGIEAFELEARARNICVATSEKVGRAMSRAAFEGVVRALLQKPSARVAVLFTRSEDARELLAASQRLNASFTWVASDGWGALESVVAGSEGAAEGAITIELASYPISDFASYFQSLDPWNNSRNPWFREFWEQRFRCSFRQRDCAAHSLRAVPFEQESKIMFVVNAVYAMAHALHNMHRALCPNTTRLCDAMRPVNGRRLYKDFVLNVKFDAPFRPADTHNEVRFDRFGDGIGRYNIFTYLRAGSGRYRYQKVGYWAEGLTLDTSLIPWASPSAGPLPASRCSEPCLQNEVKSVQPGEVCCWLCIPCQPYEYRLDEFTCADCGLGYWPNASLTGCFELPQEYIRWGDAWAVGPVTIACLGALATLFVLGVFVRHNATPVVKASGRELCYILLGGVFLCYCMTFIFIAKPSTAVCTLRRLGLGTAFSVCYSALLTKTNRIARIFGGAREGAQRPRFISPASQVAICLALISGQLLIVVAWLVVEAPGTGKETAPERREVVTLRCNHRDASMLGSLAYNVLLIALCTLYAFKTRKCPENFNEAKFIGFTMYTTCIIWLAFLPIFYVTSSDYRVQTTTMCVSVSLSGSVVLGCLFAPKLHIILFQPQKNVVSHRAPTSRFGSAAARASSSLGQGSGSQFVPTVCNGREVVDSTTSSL

NC1(C(=O)O)CCC2C(C(=O)O)C21 (single isomer, unassigned; (+)) [LY354740, (+)-2-aminobicyclo[3.1.0]hexane-2,6-dicarboxylic acid]
EC50 (human mGlu1; [2]): > 100000 nM | IC50 (human mGlu1; [3]): > 100000 nM | EC50 (human mGlu5; [2]): > 100000 nM | IC50 (human mGlu5; [3]): > 100000 nM | EC50 (human mGlu2): 5.1 ± 0.3 nM | EC50 (human mGlu7; [2]): > 100000 nM | IC50 (human mGlu7; [3]): > 100000 nM | EC50 (human mGlu4; [2]): > 100000 nM | IC50 (human mGlu4; [3]): > 100000 nM | effect on PCP-induced ambulations ([1]; single agent 10 mg/kg): statistically insignificant effect | EC50 (human mGlu3): 24.3 ± 0.5 nM | EC50 (human mGlu8): 36000 nM

N[C@@]1(C(=O)O)CO[C@H]2[C@H](C(=O)O)[C@H]21 [LY379268, 1R,4R,5S,6R-4-amino-(2-oxabicyclo[3.1.0]hexane)-4,6-dicarboxylic acid]
effect on PCP-induced ambulations ([1]; single agent 1 mg/kg): smaller and statistically insignificant effect

N[C@]1(C(=O)O)C[C@H](F)[C@@H]2[C@@H](C(=O)O)[C@@H]21 [LY459477, (1S,2R,4S,5S,6S)-2-amino-4-fluorobicyclo[3.1.0]hexane-2,6-dicarboxylic acid]
effect on PCP-induced ambulations ([1]; single agent 1 mg/kg): relatively small impact; also recorded: statistically insignificant effect

Cc1cc2c(s1)Nc1ccccc1N=C2N1CCN(C)CC1 [Olanzapine, 2-methyl-4-(4-methyl-1-piperazinyl)-10H-thieno[2,3-b][1,5]benzodiazepine, reference compound]
effect on PCP-induced ambulations ([1]; single agent 1 mg/kg): significant impact; also recorded: minimal impact
